Test results taken from US20240132431A1, “METHOD FOR ALKYLATING ACIDIC FUNCTIONAL GROUP” (Chugai Seiyaku Kabushiki Kaisha, priority 2021, published 2024).

Molecular target: T1, Bcl-2 protein (Recombinant Human Bcl-2 Protein) (Homo sapiens, UniProt P10415)
T1 construct: purchased Novus NBP2-34889
Test: Binding evaluation of mixture library compounds to Bcl-2 using AS-MS (affinity selection mass spectrometry)
Conditions: for ASMS ratio (%) n = 1: replicate n = 1; for ASMS ratio (%) n = 1 / ASMS ratio (%) n = 2: ASMS Ratio(%)=(A−C)/B×100; for ASMS ratio (%) n = 2: replicate n = 2
Experimental: For one well of MICROPLATE, 96-well, PP, V-BOTTOM (Greiner bio-one, 651201), DMSO solutions of 12 mixtures (prepared to approximately 0.58 mM based on calculations from the average molecular weight of each mixture), in each of which 100 compounds are mixed, were each dispensed, and dispensed into a total of 12 wells, where the 12 mixtures are mixAI-B4J-01, mixAI-B1M-01, mixAI-B1K-01, mixAI-B10-01, mixAI-B1A-01, mixAI-B3A-01, mixAI-B21-01, mixAI-B2L-01, mixAI-B2N-01, mixAI-B2A-01, mixAI-B2Q-01, and mixAI-B2R-01 listed in [Table AI-03-B4J-01], [Table AI-03-B1M-01], [Table AI-03-B1K-01], [Table AI-03-B10-01], [Table AI-03-B1A-01], [Table AI-03-B3A-01], [Table AI-03-B2I-01], [Table AI-03-B2L-01], [Table AI-03-B2N-01], [Table AI-03-B2A-01], [Table AI-03-B2Q-01], and [AI-03-B2R-01] shown in Example 6. Using the LABCYTE ECHO® 555 Acoustic Dispensing System (BECKMAN COULTER), 70 nL was collected from each of the 12 wells into one arbitrary well to prepare a sample solution with 1200 compounds in the mixed state (the presence of 1152 compounds had already been identified when prepared in Example 6-5-3). (In the present specification, the mixture collected in this one well is referred to as one library.) Furthermore, a Bcl-2 protein (Novus, NBP2-34889, Recombinant Human Bcl-2 Protein, Lot E60145051) (19.2 μL) that had been prepared in advance to be 20.9 μM using a Tris-HCl buffer (25 mM Tris-HCl pH 7.4, 150 mM NaCl, 0.025% Tween-20, 1 mM DTT) was added to the well in which 1200 compounds (the presence of 1152 compounds had already been identified when prepared in Example 6-5-3) were dispensed (final compound concentration […], final Bcl-2 concentration 20 μM), and the mixture was incubated in the dark at 23° C. for 1 hour. Next, using the 96-well MacroSpin column, P-2 Material (Harvard, 74-5655) that had been swollen, conditioning of the 96-well MacroSpin column was performed three times by centrifugation with 200 μL of an assay buffer (25 mM Tris-HCl pH 7.4, 150 mM NaCl, 0.025% Tween-20, 1 mM DTT), 2000 XG, 4° C., 2 min. Subsequently, 20 μL of the sample after incubation was added to the 96-well MacroSpin column, P-2 Material, that had been conditioned, and SEC treatment was performed by centrifugation at 2000×G for 2 minutes. To the liquid passed from the SEC, 32 μL of a 1:1 mixed solution of acetonitrile and methanol (LC/MS grade, Fujifilm Wako Pure Chemical Corporation) was added, the mixture was centrifuged at 1800×G, 4° C., 5 min, and the supernatant was used as analysis sample ASMS (A), while a sample that had been prepared by the same operations at 1200 compounds/well and to which only the Tris-HCl buffer had been added without the Bcl-2 protein was incubated under the same conditions, no 96-well MacroSpin column treatment was performed, the same organic solvent was added, and the supernatant solution obtained by centrifugation was used as STD (B). Next, a sample that had been prepared by the same operations at 1200 compounds/well and to which only the Tris-HCl buffer had been added without the Bcl-2 protein was incubated under the same conditions, the same 96-well MacroSpin column treatment was performed, the same organic solvent was added, and the supernatant solution obtained by centrifugation was used as BK (C), and measured by reversed phase LC/MS.
Then, analysis of the 1200 compounds was carried out for samples A, B, and C with TraceFinder 5.1 (Thermo Fisher Scientific) and CHANCE Software (in-house), and the ASMS Ratio (%) was calculated according to the following calculation formula.
Calculation formula: ASMS Ratio(%)=(A−C)/B×100

[1] = AS-MS on the mixture of 1200 library compounds
[2] = AS-MS, mixture of 1200 compounds, Bcl-2

T1 sequence (P10415 whole entry): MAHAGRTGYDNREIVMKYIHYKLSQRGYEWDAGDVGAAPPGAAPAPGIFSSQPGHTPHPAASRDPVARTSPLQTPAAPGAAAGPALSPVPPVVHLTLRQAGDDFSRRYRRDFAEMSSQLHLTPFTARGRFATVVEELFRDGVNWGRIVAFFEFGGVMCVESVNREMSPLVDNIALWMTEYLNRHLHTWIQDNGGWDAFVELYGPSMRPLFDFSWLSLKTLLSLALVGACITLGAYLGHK

| ASMS ratio (%) n = 1 (AS-MS, mixture library, Bcl-2) [%] | ASMS ratio (%) n = 2 (AS-MS, mixture library, Bcl-2) [%] | Compound | ASMS ratio (%) n = 1 [1] [%] | ASMS ratio (%) n = 2 [1] [%] | further results |
| --- | --- | --- | --- | --- | --- |
| 0.0 | 0.0 | CCOc1cncc(-c2cc(C(=O)N3CCN(c4ccc(C(=O)NS(C)(=O)=O)cc4)CC3)cc(C(C)(C)C)c2)c1 [B2I038-01, 4-[4-[3-tert-Butyl-5-(5-ethoxypyridin-3-yl)benzoyl]piperazin-1-yl]-N-methylsulfonylbenzamide] | – | – | – |
| – | – | 4-[4-[4-(3-Ethoxyphenyl)thiophene-2-carbonyl]piperazin-1-yl]-N-propylbenzamide [B1M083-01] | 0.0 | −0.3 | – |
| – | – | CCOc1cccc(-c2cc(CN3CCN(c4ccc(C(=O)NCC(F)(F)F)cc4)CC3)cc(OCC)c2)c1 [B1K055-01, 4-[4-[[3-Ethoxy-5-(3-ethoxyphenyl)phenyl]methyl]piperazin-1-yl]-N-(2,2,2-trifluoroethyl)benzamide] | – | – | ASMS ratio (%) n = 1 [2]: −0.8%; ASMS ratio (%) n = 2 [2]: 0.0% |
| – | – | CCOc1cccc(-c2cc(CN3CCN(c4ccc(C(=O)Nc5ccc(OC)cc5)nn4)CC3)cc(OC(F)(F)F)c2)c1 [B1O089-01, 6-[4-[[3-(3-Ethoxyphenyl)-5-(trifluoromethoxy)phenyl]methyl]piperazin-1-yl]-N-(4-methoxyphenyl)pyridazine-3-carboxamide] | 3.8 | −5.3 | – |
| 4.4 | 0.4 | CCOc1cncc(-c2ccc(C(=O)N3CCN(c4ccc(C(=O)NS(=O)(=O)c5ccc(NCCSc6ccccc6)c([N+](=O)[O-])c5)cc4)CC3)cc2C)c1 [B2Q026-01, 4-[4-[4-(5-Ethoxypyridin-3-yl)-3-methylbenzoyl]piperazin-1-yl]-N-[3-nitro-4-(2-phenylsulfanylethylamino)phenyl]sulfonylbenzamide] | – | – | – |
| 9.5 | 2.2 | CCOc1cncc(-c2ccc(C(=O)N3CCN(c4ccc(C(=O)NS(=O)(=O)c5ccc(NCCSc6ccccc6)c([N+](=O)[O-])c5)nn4)CC3)cc2F)c1 [B2Q006-01, 6-[4-[4-(5-Ethoxypyridin-3-yl)-3-fluorobenzoyl]piperazin-1-yl]-N-[3-nitro-4-(2-phenylsulfanylethylamino)phenyl]sulfonylpyridazine-3-carboxamide] | – | – | – |
| – | – | 4-[4-[2-[2-(3-Ethoxyphenyl)ethynyl]benzoyl]piperazin-1-yl]-N-propylbenzamide [B1M097-01] | 1.1 | 0.3 | – |
| 7.2 | 4.6 | CCOc1cccc(-c2cc(C(=O)N3CCN(c4ccc(C(=O)NS(=O)(=O)c5ccc(NCCSc6ccccc6)c([N+](=O)[O-])c5)cc4)CC3)cc(C(F)(F)F)c2)c1 [B2Q039-01, 4-[4-[3-(3-Ethoxyphenyl)-5-(trifluoromethyl)benzoyl]piperazin-1-yl]-N-[3-nitro-4-(2-phenylsulfanylethylamino)phenyl]sulfonylbenzamide] | – | – | – |
| – | – | CCOc1cccc(-c2ccc(C(=O)N3CCN(c4ccc(C(=O)NCC(F)(F)F)nn4)CC3)c3ccccc23)c1 [B1K013-01, 6-[4-[4-(3-Ethoxyphenyl)naphthalene-1-carbonyl]piperazin-1-yl]-N-(2,2,2-trifluoroethyl)pyridazine-3-carboxamide] | – | – | ASMS ratio (%) n = 1 [2]: 0.0%; ASMS ratio (%) n = 2 [2]: 1.4% |
| 16.2 | 13.5 | CCOc1cccc(-c2ccc(CN3CCN(c4ccc(C(=O)NS(=O)(=O)CC56CC7CC(CC(C7)C5)C6)nn4)CC3)cc2C)c1 [B2A073-01, N-(1-Adamantylmethylsulfonyl)-6-[4-[[4-(3-ethoxyphenyl)-3-methylphenyl]methyl]piperazin-1-yl]pyridazine-3-carboxamide] | – | – | – |
| – | – | CCOc1cccc(-c2ccc(CN3CCN(c4ccc(C(=O)NS(=O)(=O)CCC(F)(F)F)nn4)CC3)c3ccccc23)c1 [B2N091-01, 6-[4-[[4-(3-Ethoxyphenyl)naphthalen-1-yl]methyl]piperazin-1-yl]-N-(3,3,3-trifluoropropylsulfonyl)pyridazine-3-carboxamide] | – | – | ASMS ratio (%) (n = 1): 0.0%; ASMS ratio (%) (n = 2): 0.0% |
| – | – | CCOc1cncc(-c2ccc(CN3CCN(c4ccc(C(=O)N(CC)CC)cc4)CC3)c(CC)c2)c1 [B4J050-01, 4-[4-[[4-(5-Ethoxypyridin-3-yl)-2-ethylphenyl]methyl]piperazin-1-yl]-N,N-diethylbenzamide] | 2.1 | 0.6 | – |
| – | – | CCOc1cncc(-c2cc(C(=O)N3CCN(c4ccc(C(=O)NS(=O)(=O)CCC(F)(F)F)cc4)CC3)cc(C(F)(F)F)c2)c1 [B2N040-01, 4-[4-[3-(5-Ethoxypyridin-3-yl)-5-(trifluoromethyl)benzoyl]piperazin-1-yl]-N-(3,3,3-trifluoropropylsulfonyl)benzamide] | – | – | ASMS ratio (%) (n = 1): 0.0%; ASMS ratio (%) (n = 2): 0.0% |
| – | – | CCOc1cncc(-c2ccc(C(=O)N3CCN(c4ccc(C(=O)NS(=O)(=O)c5ccc(NCCSc6ccccc6)c(C(F)(F)F)c5)nn4)CC3)cc2C)c1 [B2R004-01, 6-[4-[4-(5-Ethoxypyridin-3-yl)-3-methylbenzoyl]piperazin-1-yl]-N-[4-(2-phenylsulfanylethylamino)-3-(trifluoromethyl)phenyl]sulfonylpyridazine-3-carboxamide] | – | – | ASMS ratio (%) (n = 1): 0.0%; ASMS ratio (%) (n = 2): 0.0% |
| – | – | CCOc1cncc(-c2ccc(C(=O)N3CCN(c4ccc(C(=O)N(CC)CC)cc4)CC3)cc2F)c1 [B4J028-01, 4-[4-[4-(5-Ethoxypyridin-3-yl)-3-fluorobenzoyl]piperazin-1-yl]-N,N-diethylbenzamide] | −1.0 | 0.9 | – |
| – | – | CCOc1cncc(-c2cc(OC)c(CN3CCN(c4ccc(C(=O)NCC56CC7CC(CC(C7)C5)C6)cc4)CC3)c(OC)c2)c1 [B1A060-01, N-(1-Adamantylmethyl)-4-[4-[[4-(5-ethoxypyridin-3-yl)-2,6-dimethoxyphenyl]methyl]piperazin-1-yl]benzamide] | – | – | ASMS ratio (%) n = 1 [2]: 0.0% |
| – | – | CCOc1cccc(-c2ccc(C(=O)N3CCN(c4ccc(C(=O)NS(=O)(=O)CCC(F)(F)F)nn4)CC3)cc2C)c1 [B2N003-01, 6-[4-[4-(3-Ethoxyphenyl)-3-methylbenzoyl]piperazin-1-yl]-N-(3,3,3-trifluoropropylsulfonyl)pyridazine-3-carboxamide] | – | – | ASMS ratio (%) (n = 1): 0.0%; ASMS ratio (%) (n = 2): 0.0% |
| – | – | CCOc1cccc(-c2csc(CN3CCN(c4ccc(C(=O)N(C)CC56CC7CC(CC(C7)C5)C6)cc4)CC3)c2)c1 [B3A067-01, N-(1-Adamantylmethyl)-4-[4-[[4-(3-ethoxyphenyl)thiophen-2-yl]methyl]piperazin-1-yl]-N-methylbenzamide] | −7.3 | 4.0 | – |
| – | – | 4-[4-[[3-(5-Ethoxypyridin-3-yl)-5-(trifluoromethyl)phenyl]methyl]piperazin-1-yl]-N-propylbenzamide [B1M028-01] | – | – | ASMS ratio (%) n = 1 [2]: 0.0%; ASMS ratio (%) n = 2 [2]: 0.0% |

| Compound | ASMS ratio (%) n = 1 (AS-MS, mixture library, Bcl-2) [%] | ASMS ratio (%) n = 2 (AS-MS, mixture library, Bcl-2) [%] | ASMS ratio (%) n = 1 [1] [%] | ASMS ratio (%) n = 2 [1] [%] | further results |
| --- | --- | --- | --- | --- | --- |
| CCOc1cccc(-c2csc(CN3CCN(c4ccc(C(=O)N(CC)CC)cc4)CC3)c2)c1 [B4J067-01, 4-[4-[[4-(3-Ethoxyphenyl)thiophen-2-yl]methyl]piperazin-1-yl]-N,N-diethylbenzamide] | −11.0 | −5.5 | – | – | – |
